Measurements as given in patent publication US20240148718A1, “INHIBITING MUTANT ISOCITRATE DEHYDROGENASE 1 (mIDH-1)” (FORMA Therapeutics, Inc., priority 2018, published 2024).

Key:
[1] = system: AML/MDS harboring IDH1-R132 mutations; assay: Phase 1 dose escalation and expansion study, investigator-assessed response; format: in vivo, human
BCL6 = BCL6 (Homo sapiens, UniProt P41182); assay: Surface Plasmon Resonance (SPR), control surface; format: binding; conditions: immobilized unrelated protein BCL6
[2] = system: IDH1m clone in AML patients; assay: IDH1 Variant Allele Frequency (VAF) analysis in Phase 1 patients; format: in vivo, human
Protocol: Next generation sequencing was carried out through target enrichment using HaloPlex® Target followed by Illumina® sequencing; coverage>100X across 75 genes. Digitial droplet PCR (ddPCR) was carried out through an input of 20 ng on a Stilla 3-channel system; VAF data based on >20,000 droplets.
25 patients achieved an objective response and 6 patients with SD had available longitudinal samples for analysis (VAF at C3).

binding to control surface (BCL6): no binding was observed
SMILES: C[C@H](Nc1ccc(C#N)n(C)c1=O)c1cc2cc(Cl)ccc2[nH]c1=O [Compound 1, 5-{[(1S)-1-(6-chloro-2-oxo-1,2-dihydroquinolin-3-yl)ethyl]amino}-1-methyl-6-oxo-1,6-dihydropyridine-2-carbonitrile]
CR/CRm, n (%) ([1]; All Pts): 5 (16) n (%)
CRh, n (%) ([1]; All Pts): 3 (9) n (%)
Marrow CR, n (%) ([1]; All Pts): 1 (3) n (%)
PD, n (%) ([1]; All Pts): 3 (9) n (%)
CR/CRm, n (%) ([1]; R/R AML): 4 (18) n (%)
CRh, n (%) ([1]; R/R AML): 3 (14) n (%)
Cri, n (%) ([1]; R/R AML): 2 (9) n (%)
NE, n (%) ([1]; R/R AML): 6 (27) n (%)
PD, n (%) ([1]; R/R AML): 2 (9) n (%)
pts achieving ORR ([1]; R/R AML): 41%
patients with clearance/significant reduction of the IDH1m VAF ([2]; 3 of 6 patients with stable disease): 50%
patients with IDH1 mutation clearance/significant VAF reduction ([2]; 10 of 25 patients with an IWG (objective) response, single agent or with azacitidine, VAF at ≥C3): 40%
IDH1 mutation and 2-HG, case study 2 ([2]; one treatment naive AML secondary to MDS patient, single agent, stable for 15 cycles, no IWG response): IDH1 mutation clearance and normalization of 2-HG were observed
